# Data from patent US20240262842A1, “SMALL MOLECULE INHIBITORS OF KRAS G12C MUTANT” (Merck Sharp & Dohme LLC, priority 2021, published 2024).
# Like-named read-outs stand apart in the source and are kept apart here.
# Legend:
# [1] = target: T1, interaction between GMPPNP-bound recombinant K-Ras4B G12C mutant protein and cRAF RAS-binding domain (cRAF-RBD) (Homo sapiens, UniProt P01116, G12C); assay: Inhibitory activity on interaction between KRAS G12C and cRAF (Alpha technology)
# T1 construct: His-tag (N)
# T1 sequence (P01116 with tags, fused parts or gaps isoform P01116-2 G12C): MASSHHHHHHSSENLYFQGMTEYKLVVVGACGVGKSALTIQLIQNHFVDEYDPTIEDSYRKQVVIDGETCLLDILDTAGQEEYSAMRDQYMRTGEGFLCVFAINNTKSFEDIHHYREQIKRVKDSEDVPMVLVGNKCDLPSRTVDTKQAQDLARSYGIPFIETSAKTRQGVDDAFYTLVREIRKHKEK
# Method in brief: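 His-tagged K-Ras4B G12C (aa 1-169), GMPPNP-loaded, preincubated with compound 1 h at 25° C in pH 7.5 Tris buffer with MgCl2, TCEP, Tween 20. cRAF-RBD (aa 50-132) and Alpha reagents then added for 1.5 h; Alpha signal normalised to DMSO (0%) and GDP-bound KRAS (100%); IC50 from dose titration.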
# MIA PaCa-2 cells = assay: Growth inhibition activity on KRAS-G12C mutant cell line (CellTiter-Glo 3D); assay type: cell-based, human; settings: MIA PaCa-2, 3-day culture with compound
# Method in brief: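 MIA PaCa-2 cells in RPMI1640 with 10% FBS, U-bottom wells, cultured 1 day before compound (0.2% DMSO final), then 3 days at 37 °C, 5% CO2. Viability by CellTiter-Glo 3D luminescence; growth inhibition versus untreated wells gives IC50 (nM).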
# [2] = GMPPNP-bound KRAS G12C incubated with compound 25° C. 1 hour, Table 2-1, read-out: IC50
# [3] = Homo sapiens, MIA PaCa-2, 72 h, Table 3-1
# [4] = IC50, GMPPNP-bound KRAS G12C incubated with compound 25° C. 1 hour, Table 2
# [5] = IC50, GMPPNP-bound KRAS G12C incubated with compound 25° C. 1 hour, Table 2-1
structure (smiles),measurement,setting,value
"CO[C@H]1CC[C@H](NC/C=C/C(=O)Nc2ccc(C(=O)c3cc4c5c(cccn35)-c3c(C(F)(F)F)cc5c(nc(C)n5C)c3OCC4)cc2F)CC1 [Example 67, (E)-N-(4-(9,10-dimethyl-7-(trifluoromethyl)-13,14-dihydro-9H-imidazo-[4″,5″:5′,6′]benzo[1′,2′: 2,3]oxocino[4,5,6-hi]-indolizine-2-carbonyl)-2-fluorophenyl)-4-(((1r,4r)-4-methoxycyclohexyl)-amino)but-2-enamide]",IC50,[1]; [2],0.022 µM
same,IC50,MIA PaCa-2 cells; [3],0.00822 µM
"Cn1cnc2c3c(c(C(F)(F)F)cc21)-c1cccn2c(C(=O)c4cc(F)c(NC(=O)/C=C/CN[C@@H]5[C@@H]6COC[C@@H]65)c(F)c4)cc(c12)CCO3 [Example 156, (E)-4-(((1R,5S,6s)-3-oxabicyclo[3.1.0]hexan-6-yl)amino)-N-(2,6-difluoro-4-(9-methyl-7-(trifluoromethyl)-13,14-dihydro-9H-imidazo-[4″,5″:5′,6′]benzo[1′,2′: 2,3]oxocino[4,5,6-hi]-indolizine-2-carbonyl)-phenyl)but-2-enamide]",IC50,[1]; [2],0.00806 µM
same,IC50,MIA PaCa-2 cells; [3],0.0103 µM
"Cn1cnc2c3c(c(C(F)(F)F)cc21)-c1cccn2c(C(=O)c4cc(F)c(NC(=O)/C=C/CN5CC[C@H]5C(C)(C)O)c(F)c4)cc(c12)CCO3 [Example 162, (S,E)-N-(2,6-difluoro-4-(9-methyl-7-(trifluoro-methyl)-13,14-dihydro-9H-imidazo[4″,5″:5′,6′]-benzo[1′,2′:2,3]oxocino-[4,5,6-hi]indolizine-2-carbonyl)phenyl)-4-(2-(2-hydroxypropan-2-yl)-azetidin-1-yl)but-2-enamide]",IC50,[1]; [2],0.0224 µM
same,IC50,MIA PaCa-2 cells; [3],0.0152 µM
"CC(=O)NC[C@@H]1CCN1C/C=C/C(=O)Nc1c(F)cc(C(=O)c2cc3c4c(cccn24)-c2c(C(F)(F)F)cc4c(ncn4C)c2OCC3)cc1F [Example 192, (S,E)-4-(2-(acetamido-methyl)azetidin-1-yl)-N-(2,6-difluoro-4-(9-meth-yl-7-(trifluoromethyl)-13,14-dihydro-9H-imidazo[4″,5″:5′,6′]benzo-[1′,2′:2,3]oxocino[4,5,6-hi]indolizine-2-carbonyl)-phenyl)but-2-enamide]",IC50,[1]; [2],0.0915 µM
same,IC50,MIA PaCa-2 cells; [3],0.0243 µM
"CN1CCc2cc(C(=O)c3cc(F)c(NC(=O)/C=C/CNCC(C)(C)CO)c(F)c3)n3cccc(c23)-c2c(C(F)(F)F)cc3c(ncn3C)c21 [Example 113, (E)-N-(4-(9,12-dimethyl-7-(trifluoromethyl)-9,12,13,14-tetrahydro-imidazo[4″,5″:5′,6′]benzo-[1′,2′:2,3]azocino[4,5,6-hi]indolizine-2-carbonyl)-2,6-difluorophenyl)-4-((3-hydroxy-2,2-dimethyl-propyl)amino)but-2-enamide]",IC50,[1]; [2],0.0296 µM
same,IC50,MIA PaCa-2 cells; [3],0.0106 µM
"Cn1cnc2c3c(c(C(F)(F)F)cc21)-c1cccn2c(C(=O)c4cc(F)c(NC(=O)/C=C/CN5CC6CCC5C6)c(F)c4)cc(c12)CCO3 (stereo not shown) [Example 234, (E)-4-(2-azabicyclo-[2.2.1]heptan-2-yl)-N-(2,6-difluoro-4-(9-meth-yl-7-(trifluoromethyl)-13,14-dihydro-9H-imidazo-[4″,5″:5′,6′]-benzo[1′,2′:2,3]oxocino-[4,5,6-hi]indolizine-2-carbonyl)phenyl)but-2-enamide]",IC50,[1]; [2],0.0205 µM
same,IC50,MIA PaCa-2 cells; [3],0.00708 µM
"CO[C@H]1CC[C@H](NC/C=C/C(=O)Nc2c(F)cc(C(=O)c3cn4c5c(cccc35)-c3c(C(F)(F)F)ccc(=O)n3CCC4)cc2F)CC1 [Example 49, (E)-N-(2,6-difluoro-4-(8-oxo-11-(trifluoromethyl)-5,6-dihydro-4H,8H-pyrido[2′,1′:4,5][1,5]diazocino[3,2,1-hi]indole-1-carbonyl)phenyl-4-((1r,4r)-4-methoxycyclohexyl)amino)but-2-enamide]",IC50,[1]; [4],0.26 µM
same,IC50,"MIA PaCa-2 cells; Homo sapiens, MIA PaCa-2, 72 h, Table 3",0.15 µM
"COCc1nc2c3c(c(OC)cc2n1C)-c1cccn2c(C(=O)c4cc(F)c(NC(=O)/C=C/CN5CCCC5)c(F)c4)cc(c12)CCN3C (single isomer, unassigned) [Example 188, (E)-N-(2,6-difluoro-4-(7-methoxy-10-(methoxy-methyl)-9,12-dimethyl-9,12,13,14-tetrahydro-imidazo[4″,5″:5′,6′]benzo-[1,2:2,3]azocino[4,5,6-hi]indolizine-2-carbonyl)-phenyl)-4-(pyrrolidin-1-yl)but-2-enamide]",IC50,[1]; [2],0.0725 µM
same,IC50,MIA PaCa-2 cells; [3],0.0397 µM
Cc1cc2c(nc(C)n2C)c2c1-c1cccc3c(C(=O)c4cc(F)c(NC(=O)/C=C/CN5[C@@H]6CC[C@H]5[C@H](O)C6)c(F)c4)cn(c13)CCN2C (racemic) [Example 144],IC50,[1]; [5],0.0224 µM
same,IC50,MIA PaCa-2 cells; [3],0.0302 µM
"CO[C@H]1CC[C@H](NC/C=C/C(=O)Nc2c(F)cc(C(=O)c3cc4c5c(cccn35)-c3c(C(F)(F)F)cc5c(ncn5C)c3N(C)CC4)cc2F)CC1 [Example 74, (E)-N-(4-(9,12-dimethyl-7-(trifluoromethyl)-9,12,13,14-tetrahydro-imidazo[4″,5″:5′,6′]benzo-[1′,2′:2,3]azocino[4,5,6-hi]indolizine-2-carbonyl)-2,6-difluorophenyl)-4-(((1r,4r)-4-methoxycyclo-hexyl)amino)but-2-en-amide]",IC50,[1]; [2],0.0333 µM
same,IC50,MIA PaCa-2 cells; [3],0.00822 µM
"COc1cc2c(nc(C)n2C)c2c1-c1cc(F)cn3c(C(=O)c4cc(F)c(NC(=O)/C=C/CNC5(C)CC5)c(F)c4)cc(c13)CCN2C (single isomer, unassigned) [Example 238]",IC50,[1]; [2],0.00876 µM
same,IC50,MIA PaCa-2 cells; [3],0.0027 µM
"Cc1cc2c(nc(C)n2C)c2c1-c1cccc3c(C(=O)c4cc(F)c(NC(=O)/C=C/CN5CC[C@H]5C(C)(C)O)c(F)c4)cn(c13)CCN2C [Example 139, (S,E)-N-(2,6-difluoro-4-(6,8,9,11-tetramethyl-8,11,12,13-tetrahydro-imidazo[4″,5″:5′,6′]benzo-[1′,2′:5,6][1,4]diazocino-[7,8,1-hi]indole-2-carbon-yl)phenyl)-4-(2-(2-hydroxypropan-2-yl)-azetidin-1-yl)but-2-en-amide]",IC50,[1]; [5],0.059 µM
same,IC50,MIA PaCa-2 cells; [3],0.0579 µM
"Cn1cnc2c3c(c(C(F)(F)F)cc21)-c1cccn2c(C(=O)c4cc(F)c(NC(=O)/C=C/CN5C6CCC5CC6)c(F)c4)cc(c12)CCO3 [Example 236, (E)-4-(7-azabicyclo[2.2.1]-heptan-7-yl)-N-(2,6-difluoro-4-(9-methyl-7-(trifluoromethyl)-13,14-dihydro-9H-imidazo-[4″,5″:5′,6′]benzo[1′,2′: 2,3]oxocino[4,5,6-hi]-indolizine-2-carbonyl)-phenyl)but-2-enamide]",IC50,[1]; [2],0.0165 µM
same,IC50,MIA PaCa-2 cells; [3],0.00403 µM
"CC(C)(C)NC/C=C/C(=O)Nc1c(F)cc(C(=O)c2cn3c4c(cccc24)-c2c(Cl)cccc2OCCC3)cc1F (single isomer, unassigned) [Example 2-2, (E)-4-(tert-butylamino)-N-(4-(11-chloro-5,6-dihydro-4H-benzo[8,9][1,5]oxazonino[7,6,5-hi]indole-1-carbonyl)-2,6-difluorophenyl)but-2-enamide]",IC50,[1]; [4],0.5 µM
same,IC50,MIA PaCa-2 cells; Table 3,0.39 µM
"CN1CCc2nc(C(=O)c3cc(F)c(NC(=O)/C=C/CN[C@H]4CCOC4)c(F)c3)n3cccc(c23)-c2c(C(F)(F)F)cc3c(ncn3C)c21 (single isomer, unassigned) [Example 167]",IC50,[1]; [2],0.0279 µM
same,IC50,MIA PaCa-2 cells; [3],0.0164 µM
COc1cc2c(nc(C)n2C)c2c1-c1cccn3c(C(=O)c4cc(F)c(NC(=O)/C=C/CNC(C)(C)CF)c(F)c4)cc(c13)CCN2C [Example 93],IC50,[1]; [2],0.0336 µM
same,IC50,MIA PaCa-2 cells; [3],0.0517 µM
"C[C@@H](O)[C@@H]1CCCN1C/C=C/C(=O)Nc1c(F)cc(C(=O)c2cc3c4c(cccn24)-c2c(C(F)(F)F)cc4c(ncn4C)c2N(C)CC3)cc1F [Example 211, (E)-N-(4-(9,12-dimethyl-7-(trifluoromethyl)-9,12,13,14-tetrahydro-imidazo[4″,5″:5′,6′]benzo-[1′,2′:2,3]azocino[4,5,6-hi]indolizine-2-carbonyl)-2,6-difluorophenyl)-4-((S)-2-((R)-1-hydroxy-ethyl)pyrrolidin-1-yl)but-2-enamide]",IC50,[1]; [2],0.0519 µM
same,IC50,MIA PaCa-2 cells; [3],0.0109 µM
"Cc1nc2c3c(c(C(F)(F)F)cc2n1C)-c1cccn2c(C(=O)c4cc(F)c(NC(=O)/C=C/CNC5(C)CCOCC5)c(F)c4)cc(c12)CCN3C (single isomer, unassigned) [Example 70, (E)-N-(2,6-difluoro-4-(9,10,12-trimethyl-7-(tri-fluoromethyl)-9,12,13,14-tetrahydroimidazo[4″,5″: 5′,6′]benzo[1′,2′:2,3]-azocino[4,5,6-hi]indol-izine-2-carbonyl)phenyl)-4-((4-methyltetrahydro-2H-pyran-4-yl)amino)but-2-enamide]",IC50,[1]; [2],0.00985 µM
same,IC50,MIA PaCa-2 cells; [3],0.00249 µM
"COCCn1cnc2c3c(c(C(F)(F)F)cc21)-c1cccn2c(C(=O)c4cc(F)c(NC(=O)C=CCNC5(C)CC5)c(F)c4)cc(c12)CCN3C [Example 215, (E)-N-(2,6-difluoro-4-(9-(2-methoxyethyl)-12-methyl-7-(trifluoromethyl)-9,12,13,14-tetrahydroimidazo[4″,5″:5′,6′]benzo[1′,2′:2,3]azocino[4,5,6-hi]indolizine-2-carbonyl)phenyl)-4-((1-methylcyclopropyl)amino)but-2-enamide]",IC50,[1]; [2],0.0183 µM
same,IC50,MIA PaCa-2 cells; [3],0.0034 µM
COc1cc2c(nc(C)n2C)c2c1-c1cccn3c(C(=O)c4cc(F)c(NC(=O)/C=C/CN[C@@H]5CCCOC5)c(F)c4)cc(c13)CCN2C [Example 133],IC50,[1]; [2],0.0114 µM
same,IC50,MIA PaCa-2 cells; [3],0.00645 µM
